This passage reports GI50 and TGI results from PubChem BioAssay (NCI).

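These data come from cells grown in 96-well plates and exposed to compound for 48 hours at five concentrations. GI50 is the concentration that inhibits growth by half. TGI: concentration producing complete growth inhibition.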

Assay in all cases: inhibition of tumour cell growth, NCI panel, 48 h
Assay [1] concerns DU-145 prostate.
The subject of assay [2] is EKVX NSCLC.
Assay [3] relates to SF-295 CNS.
Assay [4] concerns HOP-62 NSCLC.
For assay [5], the system named is HCT-15 colon.
Assay [6] relates to RXF 393 renal.
Assay [7] has as its system SK-MEL-2 melanoma.
The subject of assay [8] is SN12C renal.
Assay [9] relates to SW-620 colon.
For assay [10], the system named is NCI-H226 lung.

On to `O=C(COc1ccc(-c2nc3cc(Cl)c(Cl)cc3[nH]2)cc1)N=Nc1c(O)[nH]c2ccccc12`, for which the GI50 in [1] is 1.51 µM; in assay [2], 4.97 µM; in [3] it was 2.63 µM; in assay [5], greater than 100 µM; in assay [6], 2.71 µM; in assay [7], 3.84 µM. Further, the GI50 in [8] was 3.85 µM. In addition, the TGI was greater than 100 µM in assay [1]; greater than 100 µM in assay [2]; 9.01 µM in assay [3]; greater than 40.8 µM in assay [4]; greater than 100 µM in [5]; 9.77 µM in [6]. Further, the TGI was 24.1 µM in assay [7] and greater than 100 µM in assay [8].

`Cc1ccc(C)c2c(N=Nc3ccccc3[N+](=O)[O-])c(O)[nH]c12`: the TGI in [1], in [2], in assay [9], in [3], in assay [4] and in assay [5] was greater than 100 µM each time. The TGI in assay [6], in [7] and in [8] was greater than 100 µM throughout.

For `O=C(CC1C(=O)Nc2ccccc2S1(=O)=O)Nc1cccc(Cl)c1` (stereo not drawn), the TGI was determined as 42.2 µM in [2]; 31.6 µM in [9]; 35.8 µM in [10]; 54.3 µM in assay [3]; 31.5 µM in [5]; 31.7 µM in assay [6]. In addition, the TGI in [7] amounted to 84 µM; in [8], 29.5 µM.

For `Cc1cc(NS(=O)(=O)c2ccc(Nc3c4ccccc4nc4c(C(=O)Nc5ccc(S(=O)(=O)N=C(N)N)cc5)ccc(Cl)c34)cc2)no1`, the TGI was greater than 100 µM in assay [2]; 97.8 µM in assay [10]; greater than 100 µM in assay [3]; 77.9 µM in [4]; 72.9 µM in [6]; greater than 100 µM in assay [8].

Regarding `COc1cc2ccc(CC(N)=O)cc2cc1OC`, the TGI in assay [2], in assay [9], in assay [10], in [3], in assay [4] and in [5] was greater than 100 µM throughout. The TGI in assay [6], in [7] and in assay [8] was greater than 100 µM each time.

For `CN(C)CCNc1nc2ccccc2c2occc12`, the GI50 was 32 µM in [1]; 59.5 µM in assay [2]; 63.4 µM in [9]; 60.2 µM in [3]; 96.2 µM in assay [4]; 30.1 µM in assay [5]. In addition, the results for the GI50 in assay [6], in assay [7] and in assay [8] were 31.6 µM, 33.8 µM and 27.7 µM, respectively. Further, the TGI in assay [1], in assay [2], in [9], in assay [3], in [4] and in assay [5] was greater than 100 µM in each case. In addition, the figures for the TGI in assay [6], in assay [7] and in assay [8] were 86.2 µM, greater than 100 µM and 82.5 µM, respectively.

On to `Cc1cnc(SCCN2CCN(C)CC2)nc1-c1cc2ccccc2s1`, for which the TGI amounted to 24.7 µM in [9]; 25.3 µM in assay [10]; 21.2 µM in assay [3]; 4.81 µM in assay [4]; 24.7 µM in [5]; 22.7 µM in assay [6]. The values for the TGI in assay [7] and in assay [8] were 30.9 µM and 21.3 µM, respectively.

`CN1C(=O)C(=CN(C)c2ccccc2)C(=O)N(C)C1=O`: the TGI in assay [2], in assay [9], in [10], in assay [3], in assay [5] and in assay [6] was greater than 100 µM each time. In addition, the TGI in assay [7] and in assay [8] was greater than 100 µM throughout.

Consider `COc1ccc(-c2nc(-c3nc4ccc(C(F)(F)F)cc4[nH]3)c3ccccn23)cc1`, for which the GI50 is greater than 100 µM in assay [1]; greater than 100 µM in assay [9]; greater than 100 µM in assay [3]; 38 µM in assay [4]; greater than 100 µM in assay [5]; 30.5 µM in [6]. The GI50 in [7] and in assay [8] was greater than 100 µM in each case. Further, the TGI in assay [1], in [9], in [3], in [4], in assay [5] and in assay [6] was greater than 100 µM each time. The TGI in assay [7] and in [8] was greater than 100 µM throughout.

`CCCCCCCCCCCCCCNCC(OCC)OCC`: the TGI stood at 34.7 µM in assay [2]; 31.9 µM in [9]; 37.6 µM in assay [10]; 30.6 µM in [3]; 31.6 µM in [4]; 23.2 µM in assay [5]. Besides, the TGI in [6] turned out to be 22.9 µM; in assay [7], 28.6 µM; in [8], 27.9 µM.

Take `COc1ccc(C#CC2=C(c3cc(OC)c(OC)c(OC)c3)C(=O)OC2)cc1`: the GI50 in assay [2] was 13.7 µM; in [10], 7.88 µM; in assay [3], 1.75 µM; in [5] it was 1.99 µM; in assay [6] it was 6.77 µM; in assay [7], 42.5 µM. For the same compound, the TGI in assay [2] was 41.8 µM; in assay [10] it was 27.1 µM; in [3] it was 43.5 µM; in assay [5], greater than 50 µM; in assay [6], 26.7 µM; in assay [7] it was greater than 50 µM.

As to `COC[C@@H](N=CN1CCc2cc(OC)c(OC)cc2C1)C(C)(C)C`, the TGI in assay [2], in assay [9], in [10], in [3], in [4] and in assay [5] was greater than 100 µM in each case. The TGI in assay [6] and in assay [8] was greater than 100 µM in each case.

With `O=C1CCC2(c3ccccc3)Nc3ccc(Cl)cc3N12` (stereo not drawn), the TGI in assay [2], in assay [9], in assay [10], in assay [3], in [4] and in assay [5] was greater than 100 µM in each case. Also, the TGI in assay [6], in [7] and in assay [8] was greater than 100 µM each time.

As to `O=C1c2c(c3c4ccccc4[nH]c3c3[nH]c4ccccc4c23)C(=O)N1Cc1ccccc1`, the TGI in [2] amounted to 23.7 µM; in assay [9] it was 10.9 µM; in [10], 6.1 µM; in assay [3], 13.3 µM; in [4], 14.8 µM; in [5] it was 5.91 µM. The TGI turned out to be 4.12 µM in assay [6], 10.6 µM in assay [7] and 5.6 µM in assay [8].

As to `CC12CC(Sc3ccccc3N1)c1ccccc1O2` (stereo not drawn), the TGI came out at 33.4 µM in assay [2]; 31.8 µM in assay [9]; 29.8 µM in assay [3]; 38.4 µM in assay [4]; 29.2 µM in assay [5]; 30.2 µM in [6]. In addition, the values for the TGI in assay [7] and in assay [8] were 25.4 µM and 36 µM, respectively.

With `Cc1cn2c(/C=N/N=C(N)N)c(-c3ccsc3)nc2s1`, the GI50 was 13.8 µM in assay [2]; 5.67 µM in assay [9]; 15.5 µM in assay [10]; 9.98 µM in assay [3]; 7.81 µM in assay [5]; 17.3 µM in [6]. Moreover, the GI50 was 28.3 µM in assay [7] and 2.27 µM in [8]. Moreover, the TGI in assay [2] turned out to be 27.4 µM; in [9] it was 23.3 µM; in assay [10], 31.7 µM; in assay [3], 22.9 µM; in assay [5], 21.6 µM; in assay [6], 33.5 µM. In addition, the TGI in [7] was greater than 100 µM; in [8], 10.9 µM.

With `C/C=C1\CCC2c3[nH]c4ccccc4c3CCN2C1` (stereo not drawn), the TGI in [2], in [9], in [10], in assay [3], in assay [4] and in [6] was greater than 100 µM in each case. In addition, the TGI in assay [7] and in assay [8] was greater than 100 µM throughout.

On to `CC/C(CC(=O)CCC(=O)Nc1ccc(C)c(C)c1)=N\NC(=O)C(N)=O`, for which the TGI in assay [2], in assay [9], in [10], in assay [3], in assay [4] and in assay [5] was greater than 100 µM each time. This compound showed a TGI in assay [8] greater than 100 µM.

With `Cc1ccc(S(=O)(=O)SCc2ccccc2)cc1`, the TGI is 97.2 µM in assay [2]; 14.7 µM in assay [9]; 40.9 µM in [10]; greater than 89.7 µM in assay [3]; greater than 79.3 µM in assay [4]; 28.6 µM in [5]. Also, the TGI in assay [6] was 69.2 µM; in [7], greater than 75.6 µM; in [8] it was 50.4 µM.

In the case of `C[n+]1c(/C=C/c2ccc(/C=N/NC(=O)c3ccc(C(=O)N/N=C/c4ccc(/C=C/c5cn6ccccc6[n+]5C)cc4)cc3)cc2)cn2ccccc21`, the TGI in assay [1], in [2], in assay [9], in assay [3], in [4] and in [5] was greater than 100 µM throughout. Further, the TGI in assay [8] was greater than 100 µM.

Take `Cc1cc(NS(=O)(=O)c2ccc(NC(=O)COC(=O)c3cccc4c(=O)c5ccccc5[nH]c34)cc2)no1`: the TGI in assay [2], in assay [9], in assay [10], in assay [3], in assay [4] and in [5] was greater than 100 µM throughout. Besides, the TGI in assay [6] and in assay [8] was greater than 100 µM throughout.

As to `O=C(Sc1sc(=S)sc1SC(=O)c1ccccc1)c1ccccc1`, the TGI in [2] is greater than 100 µM; in assay [9], greater than 100 µM; in assay [3], greater than 100 µM; in assay [4], 72.4 µM; in [5], greater than 100 µM; in [6] it was greater than 100 µM. In addition, the TGI in assay [7] and in [8] was greater than 100 µM each time.

Consider `COC(=O)C(=O)C(CC(=O)Nc1cccc(C(F)(F)F)c1)C(=O)OC` (stereo not drawn), for which the TGI in assay [2], in assay [9], in assay [10], in assay [4], in assay [5] and in assay [6] was greater than 100 µM in each case. Moreover, the TGI in assay [7] and in assay [8] was greater than 100 µM each time.

As to `COc1cc2c(cc1OC)[C@@H]([C@H](O)c1ccccc1)NCC2`, the TGI in [2], in [9], in assay [10], in assay [3], in assay [4] and in [5] was greater than 100 µM in each case. Moreover, the TGI in assay [6], in [7] and in assay [8] was greater than 100 µM throughout.

On to `CCN(CC)CCC(=O)/C=C/c1ccc(C)cc1`, for which the TGI stood at 32.4 µM in assay [2]; 14.9 µM in [9]; 31.9 µM in assay [10]; 34.6 µM in assay [3]; 71.1 µM in assay [4]; 36.3 µM in assay [5]. Also, the values for the TGI in [6] and in [8] were 29.2 µM and 24.8 µM, respectively.

As to `Clc1ccc(C2=NOC3C4CCC(C4)C23)cc1` (stereo not drawn), the TGI in assay [2], in assay [9], in [10], in [3], in assay [4] and in assay [5] was greater than 100 µM in each case. Besides, the TGI in assay [7] and in [8] was greater than 100 µM each time.

As for `CCOP(=O)(CC(=O)C1=C(O)C(CCCCNC(=O)OC(C)(C)C)N(Cc2ccccc2)C1=O)OCC` (stereo not drawn), the TGI in [2], in [10], in assay [3], in assay [4], in assay [6] and in assay [7] was greater than 100 µM each time. Besides, in assay [8], the TGI was greater than 100 µM.

Turning to `CC(C)(C)N=CN(C=C(c1ccccc1)c1ccccc1)C1CCCCC1`, the TGI in [2] is greater than 100 µM; in assay [9], greater than 100 µM; in assay [3], 93.3 µM; in assay [4], greater than 100 µM; in assay [5] it was greater than 100 µM; in assay [6], 79.2 µM. Besides, the TGI in [7] and in [8] was greater than 100 µM each time.
